Laboratory results published in patent US20160212993A1, “ADJUVANT COMPOSITIONS” (SYNGENTA LIMITED, priority 2012, published 2016).

How the values were obtained:
Format in all cases: in vivo
Alternaria solani = Alternaria solani / tomato / preventative, ALTELYP/ff-pr; conditions: Table 4, adjuvant alone, 0.20%, average of three replicates
Procedure: (§1) In general, active ingredient is formulated (SC, SL) and just before spraying the formulations are mixed with water and ultrasonically agitated in order to achieve homogeneous distribution. Spray solutions are made up in water. Adjuvants are added as tank mix to the spray solution just before application. Foliar application is at 200 L/ha in an application device spraying with a single nozzle (type Lechler) 60 cm above the plants. Preventative tests are performed as 1 or 2 day preventative applications, i.e. plants are treated with the compounds 1 or 2 days prior to artificial inoculation with fungal spores, whereas for curative tests the inoculation is carried out prior to application. A single evaluation of disease level is made 5 to 48 days after inoculation, depending on the pathosystem. Disease control relative to the untreated check plants is then calculated. In the following examples, all treatments were sprayed at […] spray volume in 10% isopropanol solution to normalise foliar retention: Azoxystrobin;—Quadris SC250, Isopyrazam;—SC250, Cyproconazole: —Alto SL100, Chlorothalonil; Bravo SC720
Alternaria solani/Tomato/Preventative (Alternaria on Tomato)->ALTELYP/ff-pr-S:
4-week old tomato plants cv. Roter Gnom are sprayed in a spray chamber with the formulated test compound diluted in water. The test plants are inoculated by spraying them with a spore suspension two days after application. The inoculated test plants are incubated at 22/18° C. (day/night) and 95% rh in a greenhouse and the percentage leaf area covered by disease is assessed when an appropriate level of disease appears on untreated check plants (5-7 days after application).

[1] = tested on: Mycosphaerella graminicola (Septoria tritici); test: Mycosphaerella graminicola (Septoria tritici) / wheat / preventative, SEPTTRZ/ff-pr; conditions: Table 3, adjuvant alone, 0.20%, average of three replicates
Procedure: as §1
Mycosphaerella graminicola (Septoria tritici)/Wheat/Preventative (Septoria tritici Leaf Spot on Wheat)->SEPTTRZ/ff-pr-S:
2-week old wheat plants cv. Riband are sprayed in a spray chamber with the formulated test compound diluted in water. The test plants are inoculated by spraying a spore suspension on them one day after application. After an incubation period of 1 day at 22° C./21° C. (day/night) and 95% rh, the inoculated test plants are kept at 22° C./21° C. (day/night) and 70% rh in a greenhouse. Percentage leaf area covered by disease was assessed and efficacy was calculated compare to untreated controls when an appropriate level of disease appears on untreated check plants (16-19 days after application).

[2] = tested on: Puccinia recondita f. Sp. Tritici; test: Puccinia recondita f. sp. tritici / wheat / curative (brown rust on wheat), PUCCTRZ/ff-cu; set-up: key: % disease control relative to untreated check plants; conditions: 0.20%, average of three replicates
Procedure: as §1
Puccinia recondita f. Sp. Tritici/Wheat/Curative (Brown Rust on Wheat)->PUCCTRZ/ff-cu-S:
2-week old wheat plants cv. Arina are inoculated by spraying them with a spore suspension two days before application. After an incubation period of 1 day at 20° C. and 95% rh followed by 1 day at 20° C. and 60% rh in a greenhouse, the inoculated test plants are sprayed in a spray chamber with the formulated test compound diluted in water. After additional incubation at 20° C./18° C. (day/night) and 60% rh in a greenhouse, the percentage leaf area covered by disease is assessed when an appropriate level of disease appears on untreated check plants (9-12 days after application).

[3] = tested on: Puccinia recondita f. Sp. Tritici; test: Puccinia recondita f. sp. tritici / wheat / preventative (brown rust on wheat), PUCCTRZ/ff-pr; set-up: key: % disease control relative to untreated check; conditions: 0.20%, average of three replicates
Procedure: as §1
Puccinia recondita f. Sp. Tritici/Wheat/Preventative (Brown Rust on Wheat)->PUCCTRZ/ff-pr-S:
2-week old wheat plants cv. Arina are sprayed in a spray chamber with the formulated test compound diluted in water. The test plants are inoculated by spraying them with a spore suspension one day after application. After an incubation period of 1 day at 20° C. and 95% rh, the inoculated test plants are kept at 20° C./18° C. (day/night) and 60% rh in a greenhouse. The percentage leaf area covered by disease is assessed when an appropriate level of disease appears on untreated check plants (12-14 days after application).

For CCCCCCCC/C=C\CCCCCCCC(=O)OC [Methyl oleate, reference compound], the “ALTELYP/ff-pr, visual assessment of control” value (from here on “ALTELYP/ff-pr … of control”) (Alternaria solani) was 0, the “SEPTTRZ/ff-pr, visual assessment of control” value (shortened to “SEPTTRZ/ff-pr … of control”) [1] was 0 and the “PUCCTRZ/ff-cu, visual assessment of control” value (“PUCCTRZ/ff-cu … of control” below) ([2]; Table 1, adjuvant alone) was 0. For the same compound, the “PUCCTRZ/ff-cu … of control” value ([2]; Table 2, adjuvant alone) was 0, the “PUCCTRZ/ff-pr, visual assessment of control” value (from here on “PUCCTRZ/ff-pr … of control”) ([3]; Table 1, adjuvant alone) was 0 and the “PUCCTRZ/ff-pr … of control” value ([3]; Table 2, adjuvant alone) was 0. The “PUCCTRZ/ff-pr … of control” value ([3]; Table 3, adjuvant alone) was 0 and the “PUCCTRZ/ff-pr … of control” value ([3]; Table 4, adjuvant alone) was 0.
In the case of “Nopol-5PO-7EO [Nopol-5PO-7EO (Rhodoclean EFC)]”, the “ALTELYP/ff-pr … of control” value (Alternaria solani) is reported as 6, the “SEPTTRZ/ff-pr … of control” value [1] is reported as 0 and the “PUCCTRZ/ff-cu … of control” value ([2]; Table 1, adjuvant alone) is reported as 0. For the same compound, the “PUCCTRZ/ff-cu … of control” value ([2]; Table 2, adjuvant alone) was 0, the “PUCCTRZ/ff-pr … of control” value ([3]; Table 1, adjuvant alone) was 0 and the “PUCCTRZ/ff-pr … of control” value ([3]; Table 2, adjuvant alone) was 0. The “PUCCTRZ/ff-pr … of control” value ([3]; Table 3, adjuvant alone) was 0 and the “PUCCTRZ/ff-pr … of control” value ([3]; Table 4, adjuvant alone) was 0.
With “Nopol-5PO-9EO [Nopol-5PO-9EO (Rhodoclean MSC)]” the “ALTELYP/ff-pr … of control” value (Alternaria solani) was 0, the “SEPTTRZ/ff-pr … of control” value [1] was 15 and the “PUCCTRZ/ff-cu … of control” value ([2]; Table 1, adjuvant alone) was 0. For the same compound, the “PUCCTRZ/ff-cu … of control” value ([2]; Table 2, adjuvant alone) was 0, the “PUCCTRZ/ff-pr … of control” value ([3]; Table 1, adjuvant alone) was 0 and the “PUCCTRZ/ff-pr … of control” value ([3]; Table 2, adjuvant alone) was 0. For the same compound, the “PUCCTRZ/ff-pr … of control” value ([3]; Table 3, adjuvant alone) was 0 and the “PUCCTRZ/ff-pr … of control” value ([3]; Table 4, adjuvant alone) was 0.
“Nopol-5PO-25EO [Nopol-5PO-25EO (Rhodoclean 525)]” was tested, and the “ALTELYP/ff-pr … of control” value (Alternaria solani) was 2, the “SEPTTRZ/ff-pr … of control” value [1] was 7 and the “PUCCTRZ/ff-cu … of control” value ([2]; Table 1, adjuvant alone) was 0. For the same compound, the “PUCCTRZ/ff-cu … of control” value ([2]; Table 2, adjuvant alone) was 0, the “PUCCTRZ/ff-pr … of control” value ([3]; Table 1, adjuvant alone) was 0 and the “PUCCTRZ/ff-pr … of control” value ([3]; Table 2, adjuvant alone) was 0. The “PUCCTRZ/ff-pr … of control” value ([3]; Table 3, adjuvant alone) was 0 and the “PUCCTRZ/ff-pr … of control” value ([3]; Table 4, adjuvant alone) was 0.
